Data: patent US6737383B1, “Herbicidal oxadiazolidines” (priority 1999, dated 2004)

Tests used:
bedstraw = test: Test B pre/postemergence bedstraw; assay type: in vivo, Galium aparine
Summary of the method: (§1)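 Response is a visual 0-to-10 score relative to untreated plants, where 0 means no effect and 10 means complete control, taken twelve to sixteen days after application. Treatments went onto soil at planting and onto foliage of 1- to 4-leaf plants, using a surfactant-containing non-phytotoxic solvent.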

blackgrass = test: Test B pre/postemergence blackgrass; assay type: in vivo, Alopecurus myosuroides
Summary of the method: as §1

surinam grass = test: Test B pre/postemergence surinam grass; assay type: in vivo, Brachiaria decumbens
Summary of the method: as §1

cocklebur = test: Test B pre/postemergence cocklebur; assay type: in vivo, Xanthium strumarium
Summary of the method: as §1

corn = test: Test B pre/postemergence corn; assay type: in vivo, Zea mays
Summary of the method: as §1

crabgrass = test: Test B pre/postemergence crabgrass; assay type: in vivo, Digitaria sanguinalis
Summary of the method: as §1

giant foxtail = test: Test B pre/postemergence giant foxtail; assay type: in vivo, Setaria faberii
Summary of the method: as §1

pigweed = test: Test B pre/postemergence pigweed; assay type: in vivo, Amaranthus retroflexus
Summary of the method: as §1

soybean = test: Test B pre/postemergence soybean; assay type: in vivo, Glycine max
Summary of the method: as §1

sugar beet = test: Test B pre/postemergence sugar beet; assay type: in vivo, Beta vulgaris
Summary of the method: as §1

velvetleaf = test: Test B pre/postemergence velvetleaf; assay type: in vivo, Abutilon theophrasti
Summary of the method: as §1

wheat = test: Test B pre/postemergence wheat; assay type: in vivo, Triticum aestivum
Summary of the method: as §1

wild oat = test: Test B pre/postemergence wild oat; assay type: in vivo, Avena fatua
Summary of the method: as §1

purple nutsedge = test: Test B pre/postemergence purple nutsedge; assay type: in vivo, Cyperus rotundus
Summary of the method: as §1

rice = test: Test B flood test rice; assay type: in vivo, Oryza sativa
Summary of the method: (§2)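 Read-out is a visual response score from 0 (no effect) to 10 (complete control), assigned by comparison with untreated controls. Treatment was applied at the 2-leaf stage, and plants stayed in the greenhouse for twelve to sixteen days before scoring.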

duck salad = test: Test B flood test duck salad; assay type: in vivo, Heteranthera limosa
Summary of the method: as §2

[1] = Postemergence, Rate 62 g/ha, scale 0 to 10, 0 is no effect, 10 is complete control
[2] = Postemergence, Rate 250 g/ha, scale 0 to 10, 0 no effect, 10 complete control
[3] = Preemergence, Rate 62 g/ha, scale 0 to 10 (0 no effect, 10 complete control)
[4] = Preemergence, Rate 125 g/ha, scale 0 to 10 (0 no effect, 10 complete control)
[5] = Preemergence, Rate 250 g/ha, scale of 0 to 10 where 0 is no effect and 10 is complete control
[6] = Preemergence, Rate 500 g/ha, scale 0 (no effect) to 10 (complete control)
[7] = Rate 125 g/ha, Postemergence, scale 0 to 10, 0 no effect, 10 complete control
[8] = Rate 500 g/ha, Postemergence, scale 0 to 10, 0 no effect, 10 complete control
[9] = Rate 62 g/ha, headed Pre-emergence (flood test species), scale 0 to 10 (0 no effect, 10 complete control)
[10] = Rate 125 g/ha, Pre-emergence, flood test species, scale 0 to 10 where 0 is no effect and 10 is complete control
[11] = Rate 250 g/ha, headed Pre-emergence (flood test species), scale 0 to 10 (0 no effect, 10 complete control)
[12] = Rate 500 g/ha, headed Pre-emergence (flood test species), scale 0 to 10 (0 no effect, 10 complete control)

Cc1ccccc1-n1c(=O)on(C(=O)N(Cc2ccccc2)C(C)C)c1=O [Compound 72]
Bedstraw plant response rating (bedstraw; [1]): 0
Bedstraw plant response rating (bedstraw; [2]): 0
Bedstraw plant response rating (bedstraw; [3]): 0
Plant response rating, Bedstraw (bedstraw; [4]): 0
Plant response rating, Bedstraw (bedstraw; [5]): 0
Bedstraw plant response rating (bedstraw; [6]): 0
Bedstraw plant response rating (bedstraw; [7]): 0
Bedstraw plant response rating (bedstraw; [8]): 0
Blackgrass plant response rating (blackgrass; [1]): 0
Blackgrass plant response rating (blackgrass; [2]): 0
Blackgrass plant response rating (blackgrass; [3]): 0
Plant response rating, Blackgrass (blackgrass; [4]): 0
Plant response rating, Blackgrass (blackgrass; [5]): 0
Blackgrass plant response rating (blackgrass; [6]): 0
Blackgrass plant response rating (blackgrass; [7]): 0
Blackgrass plant response rating (blackgrass; [8]): 0
B. signalgrass plant response rating (surinam grass; [1]): 0
B. signalgrass plant response rating (surinam grass; [2]): 0
B. signalgrass plant response rating (surinam grass; [3]): 0
Plant response rating, B. signalgrass (surinam grass; [4]): 0
Plant response rating, B. signalgrass (surinam grass; [5]): 0
B. signalgrass plant response rating (surinam grass; [6]): 0
B. signalgrass plant response rating (surinam grass; [7]): 0
B. signalgrass plant response rating (surinam grass; Rate 500 g/ha, Postemergence, scale of 0 to 10 where 0 is no effect and 10 is complete control): 0
Cocklebur plant response rating (cocklebur; [1]): 0
Cocklebur plant response rating (cocklebur; [2]): 0
Cocklebur plant response rating (cocklebur; [3]): 0
Plant response rating, Cocklebur (cocklebur; [4]): 0
Plant response rating, Cocklebur (cocklebur; [5]): 0
Cocklebur plant response rating (cocklebur; [6]): 0
Cocklebur plant response rating (cocklebur; [7]): 0
Cocklebur plant response rating (cocklebur; [8]): 0
Corn plant response rating (corn; [1]): 0
Corn plant response rating (corn; [2]): 0
Corn plant response rating (corn; [3]): 0
Plant response rating, Corn (corn; [4]): 0
Plant response rating, Corn (corn; [5]): 0
Corn plant response rating (corn; [6]): 0
Corn plant response rating (corn; [7]): 0
Corn plant response rating (corn; [8]): 0
Crabgrass plant response rating (crabgrass; [1]): 0
Crabgrass plant response rating (crabgrass; [2]): 0
Crabgrass plant response rating (crabgrass; [3]): 0
Plant response rating, Crabgrass (crabgrass; [4]): 0
Plant response rating, Crabgrass (crabgrass; [5]): 0
Crabgrass plant response rating (crabgrass; [6]): 4
Crabgrass plant response rating (crabgrass; [7]): 0
Crabgrass plant response rating (crabgrass; [8]): 0
Giant foxtail plant response rating (giant foxtail; [1]): 0
Giant foxtail plant response rating (giant foxtail; [2]): 0
Giant foxtail plant response rating (giant foxtail; [3]): 0
Plant response rating, Giant foxtail (giant foxtail; [4]): 0
Plant response rating, Giant foxtail (giant foxtail; [5]): 2
Giant foxtail plant response rating (giant foxtail; [6]): 2
Giant foxtail plant response rating (giant foxtail; [7]): 0
Giant foxtail plant response rating (giant foxtail; [8]): 0
Redroot pigweed plant response rating (pigweed; [1]): 0
Redroot pigweed plant response rating (pigweed; [2]): 0
Redroot pigweed plant response rating (pigweed; [3]): 0
Plant response rating, Redroot pigweed (pigweed; [4]): 0
Plant response rating, Redroot pigweed (pigweed; [5]): 0
Redroot pigweed plant response rating (pigweed; [6]): 0
Redroot pigweed plant response rating (pigweed; [7]): 0
Redroot pigweed plant response rating (pigweed; [8]): 0
Soybean plant response rating (soybean; [1]): 0
Soybean plant response rating (soybean; [2]): 0
Soybean plant response rating (soybean; [3]): 0
Plant response rating, Soybean (soybean; [4]): 0
Plant response rating, Soybean (soybean; [5]): 0
Soybean plant response rating (soybean; [6]): 0
Soybean plant response rating (soybean; [7]): 0
Soybean plant response rating (soybean; [8]): 0
Sugarbeets plant response rating (sugar beet; [1]): 0
Sugarbeets plant response rating (sugar beet; [2]): 0
Sugarbeets plant response rating (sugar beet; [3]): 0
Plant response rating, Sugarbeets (sugar beet; [4]): 0
Plant response rating, Sugarbeets (sugar beet; [5]): 0
Sugarbeets plant response rating (sugar beet; [6]): 0
Sugarbeets plant response rating (sugar beet; [7]): 0
Sugarbeets plant response rating (sugar beet; [8]): 0
Velvetleaf plant response rating (velvetleaf; [1]): 0
Velvetleaf plant response rating (velvetleaf; [2]): 0
Velvetleaf plant response rating (velvetleaf; [3]): 0
Plant response rating, Velvetleaf (velvetleaf; [4]): 0
Plant response rating, Velvetleaf (velvetleaf; [5]): 0
Velvetleaf plant response rating (velvetleaf; [6]): 0
Velvetleaf plant response rating (velvetleaf; [7]): 0
Velvetleaf plant response rating (velvetleaf; [8]): 0
Wheat plant response rating (wheat; [1]): 0
Wheat plant response rating (wheat; [2]): 0
Wheat plant response rating (wheat; [3]): 0
Plant response rating, Wheat (wheat; [4]): 0
Plant response rating, Wheat (wheat; [5]): 0
Wheat plant response rating (wheat; [6]): 0
Wheat plant response rating (wheat; [7]): 0
Wheat plant response rating (wheat; [8]): 0
Wild oats plant response rating (wild oat; [1]): 0
Wild oats plant response rating (wild oat; [2]): 0
Wild oats plant response rating (wild oat; [3]): 0
Plant response rating, Wild oats (wild oat; [4]): 0
Plant response rating, Wild oats (wild oat; [5]): 0
Wild oats plant response rating (wild oat; [6]): 0
Wild oats plant response rating (wild oat; [7]): 0
Wild oats plant response rating (wild oat; [8]): 0
Nutsedge plant response rating (purple nutsedge; [1]): 0
Nutsedge plant response rating (purple nutsedge; [2]): 0
Nutsedge plant response rating (purple nutsedge; [3]): 0
Plant response rating, Nutsedge (purple nutsedge; [4]): 0
Plant response rating, Nutsedge (purple nutsedge; [5]): 0
Nutsedge plant response rating (purple nutsedge; [6]): 0
Nutsedge plant response rating (purple nutsedge; [7]): 0
Nutsedge plant response rating (purple nutsedge; [8]): 0
Rice plant response rating (rice; [9]): 0
Rice plant response rating (rice; [10]): 0
Rice plant response rating (rice; [11]): 0
Plant response rating, Rice (rice; [12]): 0
Ducksalad plant response rating (duck salad; [9]): 0
Ducksalad plant response rating (duck salad; [10]): 0
Ducksalad plant response rating (duck salad; [11]): 0
Plant response rating, Ducksalad (duck salad; [12]): 0
